# Experimental data: US12496357B2, “Compositions and methods for treating sickle cell disease” (Yale University, priority 2019, dated 2025)
# Assays:
# [1] = system: SCD mutation (β-globin gene), bulk mouse bone marrow cells; test: SCD gene correction by ddPCR of gDNA, bulk bone marrow cells treated ex vivo; assay type: cell-based; details: for effect of added factor on gene editing frequencies by ddPCR: bulk bone marrow and HSPCs (lin−) treated with tcPNA 2 nanoparticles, particularly in HSPCs; for effect of DNA repair modulator on editing vs NP only: PLA-HPG nanoparticles encapsulating tcPNA 2 or sertcPNA 2
# Method: Bulk mouse bone marrow cells were treated with PLGA NPs encapsulating tcPNA 1A, 2A, 3A and correcting donor DNA molecules.
# Bulk bone marrow cells were treated with PLGA NPs encapsulating modified (tc PNA 2A) and unmodified versions (tc PNA 2) of PNA sequence. 72 hours after treatment, gDNA was isolated and analyzed for editing frequencies by ddPCR.
# (§1) Bulk bone marrow cells were treated with PLGA NPs encapsulating unmodified PNA (tcPNA 2). 72 hours after treatment HSPCs, were isolated from bulk cells via negative and positive selection, and gene editing all three populations was compared.
# (§2) Bulk bone marrow and HSPCs (lin^−) were treated with tcPNA 2 nanoparticles and combinations of stem cell factor, erythropoietin, and plerixafor. 72 hours after treatment, gDNA was isolated and analyzed for editing frequencies by ddPCR.
# Bulk bone marrow cells were treated with tcPNA 2 encapsulated into poly(lactic-co-glycolic acid) (PLGA), or poly(lactic acid)PLA-HPG.
# Nanoparticles made from poly(lactic acid) (PLA) conjugated to hyperbranched polyglycerols (HPG), referred to as PLA-HPG, were synthesized using a double emulsion solvent evaporation protocol. Briefly, 50 mg of PLA-HPG was dissolved in 2.4 mL of ethyl acetate and 0.6 mL of DMSO. PNA and donor DNA were heated to 60° C. for 10 minutes, mixed, and immediately added dropwise to the polymer solution under vortex. This 1st emulsion (water-in-oil) was sonicated 3 times at 38% amplitude for 10 seconds using a probe sonicator. Following sonication, the primary emulsion was added dropwise to 4 mL of diH2O, forming the second emulsion (water-in-oil-in-water), which was subsequently sonicated as above. Nanoparticles were further diluted in 20 mL of diH2O. Residual organic solvent was removed using a rotovap. After solvent removal, nanoparticles were collected via centrifugation in Amicon 100K filter tubes. Following a second washing step, nanoparticles were resuspended in diH2O, frozen, and stored as 100 μl aliquots containing 2 mg of nanoparticles. Where indicated, low molecular weight PLA-HPG (P7H9-2) or high molecular weight PLA-HPG (P7H3-18) was used.
# Bulk bone marrow cells were treated with PLGA or PLA-HPG nanoparticles encapsulating unmodified (tcPNA 2) and serine modified (^sertcPNA 2) along with correcting donor DNA molecules.
# Experiments were designed to test the effects of DNA repair inhibition on gene editing. Bulk bone marrow cells were treated with PLA-HPG nanoparticles encapsulating tcPNA 2 or ^sertcPNA 2, with or without the addition of small molecule modulators of DNA repair: RS-1, RI-1, RI-2, B0-2, or SCR-7.
# [2] = system: SCD mutation (β-globin gene), CD117+ HSPCs; test: SCD gene correction by ddPCR of gDNA, CD117+ HSPCs; assay type: cell-based, mouse
# Method: Bulk bone marrow cells were treated with PLGA NPs encapsulating tcPNA 1A, 2A, 3A and correcting donor DNA molecules. 72 hours after treatment, HSPCs were isolated by CD117+ selection. gDNA was harvested from these cells and assayed for gene correction via ddPCR.
# as §1
# [3] = system: SCD mutation (β-globin gene), HSPCs (lin−); test: SCD gene correction by ddPCR of gDNA, HSPCs (lin−) isolated via negative selection; assay type: cell-based, mouse; details: PLGA NPs encapsulating tcPNA 2; 72 hours; comparison of three cell populations
# Method: as §1, §2
# [4] = system: double-stranded DNA target (200 bp); test: PNA incubation with double-stranded DNA target, triplex band; assay type: binding; details: unmodified tcPNA 2 vs modified tcPNA 2A; both temperature conditions
# Method: Modified (tcPNA 2A) and unmodified (tcPNA 2) PNAs were incubated with a double-stranded DNA target (200 bp) at indicated temperatures.
# Berk hemizygous mice = test: In vivo gene editing in Berk hemizygous mice treated with nanoparticles; set-up: species or system mouse; details: nanoparticles encapsulating tcPNA 2 and donor DNA, intravenous
# Text: Experiments were designed to test the ability of tcPNA 2 to drive gene editing in vivo.
# Berk hemizygous mice treated with nanoparticles encapsulating unmodified SCD-tcPNA 2: H-KKK-TTJJTJT-OOO-[…]-KKK-NH2 (SEQ ID NO:5) K indicates lysine; J, pseudoisocytosine (for C) for pH-independent triplex formation. O, 8-amino-2,6,10-trioxaoctanoic acid linkers connecting the Hoogsteen and Watson-Crick domains of the tcPNAs, serine modified bases (bold and underlined) along the Watson-Crick domain and donor DNA: […]
# [5] = system: Primary mouse bone marrow cells; test: Cytokine expression in primary mouse bone marrow cells after NP treatment; assay type: cell-based; details: PLGA NPs encapsulating tcPNA 1A and correcting donor DNA; 48 hours after treatment
# Method: The toxicity and safety of PNA/donor DNA delivery using nanoparticles were investigated. Primary mouse bone marrow cells were treated with PLGA nanoparticles (NPs) encapsulating tcPNA 1A and correcting donor DNA. 48 hours after treatment cells were spun, media collected, and assayed for cytokine expression.
# [6] = bulk bone marrow cells, 1 uM dose
# [7] = bulk bone marrow cells, 10 uM dose
# [8] = PLGA NPs encapsulating tcPNA 2, 72 hours, comparison of three cell populations
compound,measurement,setting,value
O=c1c2ccccc2nc(/C=C/c2cccnc2)n1Cc1ccccc1 [B0-2],gene editing frequencies,"[1]; bulk bone marrow cells, PLA-HPG nanoparticles encapsulating tcPNA 2 or sertcPNA 2, with or without modulator of DNA repair",~12%
"c1cc(CN2CCCNCCNCCCNCC2)ccc1CN1CCCNCCNCCCNCC1 [Plerixafor, plerixafor]",effect of added factor on gene editing frequencies by ddPCR,[1]; 72 hours,increased gene editing frequencies
O=C1C(Cl)=C(N2CCOCC2)C(=O)N1c1ccc(Cl)c(Cl)c1 [RI-1],effect of DNA repair modulator on editing vs NP only,[1]; [6],higher levels of editing
same,effect of DNA repair modulator on editing vs NP only,[1]; [7],reduced levels
O=C(Nc1ccc(Br)cc1)c1ccc(Br)c(S(=O)(=O)NCc2ccccc2)c1 [RS-1],effect of DNA repair modulator on editing vs NP only,[1]; [6],reduced editing frequencies
same,effect of DNA repair modulator on editing vs NP only,[1]; [7],higher levels of editing
O=c1[nH]c(=S)[nH]c(N=Cc2ccccc2)c1N=Cc1ccccc1 [SCR-7],effect of DNA repair modulator on editing vs NP only,[1]; [6],decreased PNA-mediated gene editing
same,effect of DNA repair modulator on editing vs NP only,[1]; [7],decreased PNA-mediated gene editing
"SCF: stem cell factor, C-kit ligand",effect of added factor on gene editing frequencies by ddPCR,[1]; 72 hours,increased gene editing frequencies
"^sertcPNA 2: tc PNA 2 sequence (SEQ ID NO:5) modified with a hydroxymethyl (serine) group at the γ position along the Watson-Crick domain (TTNNTNTTCTCCTTAAACCTGTCTT; gamma-serine (hydroxymethyl) modified PNA backbone, chemistry not fully specified)",gene editing relative to unmodified tcPNA 2,"[1]; bulk bone marrow cells, PLGA or PLA-HPG nanoparticles with donor DNA, even at lower NP doses",increased gene editing appreciably
"lys-lys-lys-TTJJTJT-OOO-TCTCCTTAAACCTGTCTT-lys-lys-lys (SEQ ID NO:5) (TTNNTNTTCTCCTTAAACCTGTCTT; PNA, lysine ends, OOO linker, chemistry not fully specified) [tcPNA 2, tail-clamp PNA oligomer targeting the β-globin gene]","gene editing by ddPCR, bulk population",[1]; [8],appreciable editing
same,level of editing (correction of the SCD mutation) by ddPCR,"[1]; bulk bone marrow cells, PLGA NPs, unmodified tcPNA 2 vs mini-PEG modified tcPNA 2A, 72 hours",highest level of editing
same,"gene editing by ddPCR, CD117+ population",[2]; [8],appreciable editing
same,"gene editing by ddPCR, HSPCs isolated via negative selection",[3],highest levels of editing
same,invasion of duplex DNA (triplex band),[4],superior invasion of duplex DNA
same,gene editing in vivo,Berk hemizygous mice,can Drive Gene Editing In Vivo
"tcPNA 1A: SEQ ID NO:14 tail-clamp PNA with alternating mini-PEG modified bases along the Watson-Crick domain (NNTNTTNCTTCTCCACAGGAGTCAG; alternating gamma mini-PEG modified PNA units, chemistry not fully specified)",inflammatory cytokine expression,[5],did not produce inflammatory cytokine expression
"tcPNA 2A: SEQ ID NO:5 tail-clamp PNA with alternating mini-PEG modified bases along the Watson-Crick domain (TTNNTNTTCTCCTTAAACCTGTCTT; alternating gamma mini-PEG modified PNA units, chemistry not fully specified)",level of gene editing as measured by ddPCR (SCD gene correction),"[1]; bulk mouse bone marrow cells, PLGA NPs encapsulating tcPNA 1A, 2A, 3A and donor DNA, compared with each other",highest level of gene editing
same,level of gene editing as measured by ddPCR (SCD gene correction),"[2]; CD117+ HSPCs isolated 72 hours after treatment, PLGA NPs encapsulating tcPNA 1A, 2A, 3A and donor DNA, compared with each other",highest level of gene editing
